Test results taken from PubChem BioAssay AID1919010 (Molecular Pharmacology Branch, DTP, NCI, 2023).

Test system: Hs578T complex spheroid growth, percent test/control
Assay: Anticancer human tumor Hs578T cell line growth inhibition [AhR];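 note: luminescent viability signal as a proxy for spheroid growth; spheroids exposed to agents for one week after three days of growth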
Details: for IC50: curve of first compound; for viability, T/C: stronger effect = lower value
In short: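 Complex tumor spheroids co-cultured with HUVEC and human MSC stroma; AhR antagonists tested in combination with standard-of-care and investigational agents. Top concentration at or near clinical Cmax (else 10 microM), half-log dilutions; growth expressed as percent test/control.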

[1] = second compound 0.1 µM, first compound 0.0316 µM
[2] = second compound 0.1 µM, first compound 0.1 µM
[3] = second compound 0.1 µM, first compound 0.316 µM
[4] = second compound 0.1 µM, first compound 1 µM
[5] = second compound 0.316 µM, first compound 0.0316 µM
[6] = second compound 0.316 µM, first compound 0.1 µM
[7] = second compound 0.316 µM, first compound 0.316 µM
[8] = second compound 0.316 µM, first compound 1 µM
[9] = second compound 1 µM, first compound 0.0316 µM
[10] = second compound 1 µM, first compound 0.1 µM
[11] = second compound 1 µM, first compound 0.316 µM
[12] = second compound 1 µM, first compound 1 µM
[13] = second compound 3.16 µM, first compound 0.0316 µM
[14] = second compound 3.16 µM, first compound 0.1 µM
[15] = second compound 3.16 µM, first compound 0.316 µM
[16] = second compound 3.16 µM, first compound 1 µM
[17] = second compound 10 µM, first compound 0.0316 µM
[18] = second compound 10 µM, first compound 0.1 µM
[19] = second compound 10 µM, first compound 0.316 µM
[20] = second compound 10 µM, first compound 1 µM

Row | Structure (SMILES) | IC50 (second compound 0.1 µM) [nM] | IC50 (second compound 0.316 µM) [nM] | IC50 (second compound 1 µM) [nM] | IC50 (second compound 3.16 µM) [nM] | IC50 (second compound 10 µM) [nM] | viability, T/C [1] [%] | viability, T/C [2] [%] | viability, T/C [3] [%] | viability, T/C [4] [%] | viability, T/C [5] [%] | viability, T/C [6] [%] | viability, T/C [7] [%] | viability, T/C [8] [%] | viability, T/C [9] [%] | viability, T/C [10] [%] | viability, T/C [11] [%] | viability, T/C [12] [%] | viability, T/C [13] [%] | viability, T/C [14] [%] | viability, T/C [15] [%] | also measured
1 | CC1COCCN1c1cc(-c2ccnn2C)c2ccnc(-c3ccn[nH]3)c2n1 (stereo not given) + CC(CO)NC(=O)c1cc(-c2ccc(Cl)cc2)nn(-c2cnn(C)c2)c1=O | 526 | 778 | 615 | 384 | 860 | 114 | 91.9 | 53.6 | 45.4 | 112 | 96 | 59.7 | 47.8 | 122 | 89.8 | 56.2 | 45.5 | 121 | 86.9 | 51.6 | viability, T/C (second compound 0.1 µM, first compound 0.00316 µM): 118%; viability, T/C (second compound 0.1 µM, first compound 0.01 µM): 117%; viability, T/C (second compound 0.316 µM, first compound 0.00316 µM): 133%; viability, T/C (second compound 0.316 µM, first compound 0.01 µM): 124%; viability, T/C (second compound 1 µM, first compound 0.00316 µM): 123%; viability, T/C (second compound 1 µM, first compound 0.01 µM): 126%; viability, T/C (second compound 3.16 µM, first compound 0.00316 µM): 121%; viability, T/C (second compound 3.16 µM, first compound 0.01 µM): 122%; viability, T/C [16]: 46.2%; viability, T/C (second compound 10 µM, first compound 0.00316 µM): 121%; viability, T/C (second compound 10 µM, first compound 0.01 µM): 124%; viability, T/C [17]: 115%; viability, T/C [18]: 74.5%; viability, T/C [19]: 57.6%; viability, T/C [20]: 45.9%
2 | CC1COCCN1c1cc(C2(S(C)(=N)=O)CC2)nc(-c2ccnc3[nH]ccc23)n1 (stereo not given) + CC(CO)NC(=O)c1cc(-c2ccc(Cl)cc2)nn(-c2cnn(C)c2)c1=O | > 10000 | > 10000 | > 10000 | > 10000 | > 10000 | 112 | 117 | 108 | 107 | 113 | 122 | 127 | 100 | 111 | 134 | 112 | 111 | 111 | 114 | 114 | viability, T/C (second compound 0.1 µM, first compound 3.16 µM): 90.5%; viability, T/C (second compound 0.1 µM, first compound 10 µM): 60.3%; viability, T/C (second compound 0.316 µM, first compound 3.16 µM): 85.2%; viability, T/C (second compound 0.316 µM, first compound 10 µM): 61.3%; viability, T/C (second compound 1 µM, first compound 3.16 µM): 94.7%; viability, T/C (second compound 1 µM, first compound 10 µM): 66%; viability, T/C [16]: 111%; viability, T/C (second compound 3.16 µM, first compound 3.16 µM): 91.7%; viability, T/C (second compound 3.16 µM, first compound 10 µM): 59.5%; viability, T/C [17]: 105%; viability, T/C [18]: 121%; viability, T/C [19]: 122%; viability, T/C [20]: 116%; viability, T/C (second compound 10 µM, first compound 3.16 µM): 90.9%; viability, T/C (second compound 10 µM, first compound 10 µM): 58.8%
